# From US6340764B1, “Reference compound for use in the analysis of levosimendan batches” (Orion Corporation, priority 1998, dated 2002)
# Tested on: bacterial mutagenity test (Ames test)
# Test: bacterial mutagenity test (Ames test)
# Assay type: cell-based
row,SMILES,genotoxic / mutagenic properties in the bacterial mutagenity test (Ames test)
1,"CC1CC(=O)OC1(N=[N+]=[N-])c1ccc(NN=C(C#N)C#N)cc1 (centres unmarked) [Compound (I), [[4-(2-azido-3-methyl-5-oxotetrahydrofuran-2-yl)phenyl]hydrazono]propanedinitrile]",potent mutagen
2,"CC1CC(=O)NN=C1c1ccc(NN=C(C#N)C#N)cc1 (single isomer, unassigned; (-)) [levosimendan, (−)-enantiomer of [[4-(1,4,5,6-tetrahydro-4-methyl-6-oxo-3-pyridazinyl)phenyl]hydrazono]propanedinitrile]",show potential genotoxic properties occasionally
